Assay results reported in patent publication US11091769B2, “Development and use of modified plants and seeds that are resistant to herbicides and environmental stress” (Texas State University, priority 2017, dated 2021).

Assays:
[1] = system: Arabidopsis seedlings (primary root growth); assay: Root growth inhibition assay; assay type: in vivo, Arabidopsis thaliana; settings: for inhibition at 0.1 µM: 100 nM picloram; for primary root growth sensitivity of pic30 mutants: pic30-1, pic30-2 and pic30-3, incremental concentrations; for primary root growth inhibition: media containing 10 pM picloram; for root growth sensitivity of PIC30-OX lines: all four PIC30-OX lines
Method: For root growth inhibition assays, 4-5 day old seedlings were transferred to control media and media containing indicated concentrations of different auxins. Primary root lengths were measured after 4 days of incubation, and percentage root growth inhibition was calculated.

DR5::GFP auxin sensor = assay: Auxin induced DR5::GFP expression; assay type: in vivo, Arabidopsis thaliana; settings: pic30-3 crossed with DR5::GFP; 5 day-old seedlings; 20 hours incubation
Method: To test auxin induced DR5::GFP expression, 5 day-old seedlings were transferred to control media and media containing indicated concentrations of different auxins. Plates were incubated for 20 hours at 21° C. under continuous light. Confocal images were acquired after the incubation period.
Confocal images were acquired using either 20× water immersion or 60× oil immersion lenses with Fluoview™ FV1000 laser scanning confocal microscope (Olympus). While making a quantitative comparison between one or more confocal images, similar laser intensity and transmittance light were used.

[2] = system: Arabidopsis apical root sections (PIC30 transporter); assay: In planta radioactive transport assay; set-up: species or system Arabidopsis thaliana
Method: In planta transport assays were performed according to a protocol described elsewhere (Ito and Gray, Plant Physiology 142, 63-74, 2006) with few modifications. 15 mm root sections (at root tip) from 9 day-old seedlings were excised and incubated in transport assay buffer (TAB, 20 mM MES-KOH, pH 5.6, 10 mM sucrose and 0.5 mM CaCl2) for 30 minutes. Root sections were then transferred to the TAB containing 1.5 nM of ^14C picloram and 10 pM of unlabeled picloram or 7.9 nM of ^3H IAA and incubated for 1-6 hours at room temperature. Following thorough rinsing with cold TAB buffer, root sections were transferred to scintillation vials containing 1 ml of scintillation liquid. Radioactivity was measured using scintillation counter (Beckman Coulter, Calif.).

Arabidopsis plants = assay: Foliar picloram sensitivity test at the adult stage; assay type: in vivo, Arabidopsis thaliana
Method: For chlorate and picloram sensitivity testing at the adult stage, 7 day-old seedlings were transferred to soil (Fafard growing mix 2) and grown under continuous light for an additional 12 days. To test chlorate sensitivity, plants were then irrigated with 1 mM sodium chlorate solution on alternating days. Chlorate induced leaf bleaching were examined and imaged after 10-12 days. […] Images were acquired 14-18 days after the treatment.

[3] = system: PIC30pro::PIC30-GUS expression; assay: PIC30-GUS expression, quantitative MUG assay; assay type: in vivo, Arabidopsis thaliana; settings: 5 day old PIC30pro::PIC30-GUS seedlings; 25 pM picloram; indicated time intervals
Method: To study the effect of picloram on PIC30 expression, 5 day old PIC30pro::PIC30-GUS seedlings were treated with 25 pM picloram in liquid media. They were incubated under continuous light at 21° C. without shaking, and samples were collected at different time intervals and frozen in liquid nitrogen. PIC30-GUS expression was determined through quantitative MUG assay.
Quantification of GUS expression was performed by fluorometric MUG (4-methylumbelliferyl-beta-D-glucuronide) assay following protocol described elsewhere (Parry et al. The Plant Cell 18, […], 2006) and the fluorescence was measured using a Fluorometer (Modulus, Turner Biosystems).

[4] = system: Arabidopsis seedlings and plants; assay: In planta chlorate sensitivity test; assay type: in vivo, Arabidopsis thaliana
Method: For chlorate sensitivity testing at the seedling stage, seeds were plated onto either control media or media containing 1-1.5 mM sodium chlorate. Plates were incubated under continuous light at 21° C. for 9 days. After the incubation, representative images were acquired using DSLR (PENTAX) camera.
For chlorate and picloram sensitivity testing at the adult stage, 7 day-old seedlings were transferred to soil (Fafard growing mix 2) and grown under continuous light for an additional 12 days. To test chlorate sensitivity, plants were then irrigated with 1 mM sodium chlorate solution on alternating days. Chlorate induced leaf bleaching were examined and imaged after 10-12 days. To test picloram sensitivity, plants were sprayed with 200 g/ha of picloram. Images were acquired 14-18 days after the treatment.

Structure (SMILES): Nc1c(Cl)c(Cl)nc(C(=O)O)c1Cl [picloram]
- inhibition at 0.1 µM ([1]; Arabidopsis thaliana, 96 h, PIC30-OX lines, 4 days incubation): 87 to 89%
- inhibition at 10 pM ([1]; Arabidopsis thaliana, 96 h, four PIC30-OX lines (PIC30-GFP in pic30-3), 10 pM picloram, 4 days incubation): 97 to 98%
- inhibition at 0.1 µM ([1]; Arabidopsis thaliana, 96 h, pic30-3, 4 days incubation): ~10%
- inhibition at 0.1 µM ([1]; Arabidopsis thaliana, 96 h, wild type, 4 days incubation): ~10%
- primary root growth sensitivity of pic30 mutants ([1]; 4 days incubation): highly insensitive
- primary root growth inhibition ([1]; pic30-3 mutant, 4 days incubation): 46%
- primary root growth sensitivity of pic30-1-OX lines ([1]; three independent homozygous pic30-1-OX lines in wild type background): insensitive
- primary root growth inhibition ([1]; wild type, 4 days incubation): approximately 73%
- DR5::GFP expression in pic30-3 (DR5::GFP auxin sensor): not
- picloram uptake in pic30-3 versus wild type root sections ([2]; pic30-3, 14C-picloram, 15 mm root sections of 9 day-old seedlings): significantly lower
- picloram uptake relative to wild type roots ([2]; two PIC30-OX lines, 14C-picloram, 15 mm apical root sections): 26-30 times
- response to foliar treatment (Arabidopsis plants; PIC30-OX adult plants, 100 g/ha): hypersensitive
- response to foliar treatment (Arabidopsis plants; pic30-1, pic30-2, pic30-3 adult plants, 200 g/ha sprayed): highly insensitive
- effect on PIC30 gene expression [3]: did not have influence

Structure (SMILES): O=C(O)Cc1cccc2ccccc12 [1-NAA, 1-Naphthaleneacetic acid]
- root growth sensitivity of PIC30-OX lines ([1]; 4 days incubation): wild-type sensitivity
- primary root growth sensitivity of pic30 mutants ([1]; 4 days incubation): wild type sensitivity

Structure (SMILES): Nc1cc(Cl)nc(C(=O)O)c1Cl [aminopyralid]
- primary root growth sensitivity of pic30 mutants ([1]; 4 days incubation): insensitive
- DR5::GFP expression in pic30-3 (DR5::GFP auxin sensor): not

Structure (SMILES): O=C(O)Cc1c[nH]c2ccccc12 [IAA, indole-3-acetic acid]
- root growth sensitivity of PIC30-OX lines ([1]; 4 days incubation): wild-type sensitivity
- primary root growth sensitivity of pic30 mutants ([1]; 4 days incubation): wild type sensitivity
- DR5::GFP expression in pic30-3 (DR5::GFP auxin sensor): upregulated
- IAA uptake, wild type versus pic30-3 ([2]; 3H-IAA, 15 mm apical root sections): no difference

Structure (SMILES): O=C(O)COc1ccc(Cl)cc1Cl [2,4-D, 2,4-dichlorophenoxyacetic acid]
- primary root growth sensitivity of pic30 mutants ([1]; 4 days incubation): wild type sensitivity
- DR5::GFP expression in pic30-3 (DR5::GFP auxin sensor): upregulated

Structure (SMILES): [O-][Cl+2]([O-])O [chlorate, sodium chlorate]
- chlorate sensitivity ([4]; PIC30-OX lines, adult stage, irrigated with chlorate solution): wild-type sensitivity
- chlorate sensitivity ([4]; all four PIC30-OX lines, seedling stage): hypersensitivity
- chlorate induced cotyledon and leaf bleaching ([4]; pic30-1, seedling and adult stages): pronounced cotyledon and leaf bleaching
- chlorate induced cotyledon and leaf bleaching ([4]; pic30-2, seedling and adult stages): pronounced cotyledon and leaf bleaching
- chlorate induced necrosis and leaf bleaching ([4]; pic30-3, seedling and adult stages): insensitive
- chlorate induced cotyledon and leaf bleaching ([4]; wild type, seedling (1-1.5 mM sodium chlorate, 9 days) and adult (1 mM irrigation) stages): pronounced cotyledon and leaf bleaching
